Measurements taken from patent publication US9271978B2 (Zenith Epigenetics Corp., priority 2012, dated 2016).

Tests used:
IL-6 and IL-17 cytokines = experiment: In vivo efficacy in mouse endotoxemia model; settings: C57/B16 mice, oral 75 mg/kg, inhibition in IL-6 and IL-17 post 4-h LPS challenge 0.5 mg/kg i.p.
Experimental: Sub lethal doses of Endotoxin (E. Coli bacterial lipopolysaccharide) were administered to animals to produce a generalized inflammatory response which was monitored by increases in secreted cytokines. Compounds were administered to C57/B16 mice orally at 75 mg/kg dose to evaluate inhibition in IL-6 and IL-17 cytokines post 4-h challenge with lipopolysaccharide (LPS) at 0.5 mg/kg dose intraperitoneally.

[1] = system: Rat collagen-induced arthritis; experiment: In vivo efficacy in rat collagen-induced arthritis; settings: female Lewis rats, dosed Day 11 to Day 17
Experimental: Rat collagen-induced arthritis is an experimental model of polyarthritis that has been widely used for preclinical testing of numerous anti-arthritic agents. Following administration of collagen, this model establishes a measurable polyarticular inflammation, marked cartilage destruction in association with pannus formation and mild to moderate bone resorption and periosteal bone proliferation. In this model, collagen was administered to female Lewis strain of rats on Day 1 and 7 of study and dosed with compounds from Day 11 to Day 17. Test compounds were evaluated to assess the potential to inhibit the inflammation (including paw swelling), cartilage destruction and bone resorption in arthritic rats, using a model in which the treatment is administered after the disease has been established.

hIL-17 mRNA = experiment: Inhibition of hIL-17 mRNA transcription in human peripheral blood mononuclear cells; format: cell-based; design: key: Active: Compounds with an IC50 value less than 30 μM were deemed to be active.; Not Active: Compounds with an IC50 value less than 30 μM were deemed to be active; settings: OKT3 antibody stimulation
Experimental: In this example, hIL-17 mRNA in human peripheral blood mononuclear cells was quantitated to measure the transcriptional inhibition of hIL-17 when treated with a compound of the invention.
Human peripheral blood mononuclear cells were plated (2.0×10^5 cells per well) in a 96-well plate in 45 μL OpTimizer T Cell expansion media containing 20 ng/ml IL-2 and penicillin/streptomycin. The cells were treated with the test compound (45 μL. at 2× concentration), and then the cells were incubated at 37° C. for 1 h before addition of 10× stock OKT3 antibody at 10 ug/ml in media. Cells were incubated at 37° C. for 3 h before the cells were harvested. At time of harvest, cells were centrifuged (800 rpm, 5 min). Spent media was removed and cell lysis solution (70 μL) was added the cells in each well and incubated for 5-10 min at room temperature, to allow for complete cell lysis and detachment. mRNA was then prepared using the “mRNA Catcher PLUS plate” (Invitrogen), according to the protocol supplied. After the last wash, as much wash buffer as possible was aspirated without allowing the wells to dry. Elution buffer (E3, 70 μL) was then added to each well. mRNA was then eluted by incubating the mRNA Catcher PLUS plate with Elution Buffer for 5 min at 68° C. and then immediately placing the plate on ice.
The eluted mRNA isolated was then used in a one-step quantitative real-time PCR reaction, using components of the Ultra Sense Kit together with Applied Biosystems primer-probe mixes. Real-time PCR data was analyzed, normalizing the Ct values for hIL-17 to an internal control, prior to determining the fold induction of each unknown sample, relative to the control.

Row | Structure (SMILES) | In vivo activity (IL-6 and IL-17 cytokines) | In vivo activity [1] | IL-17 activity (IC50 < 30 μM) (hIL-17 mRNA)
1 | Cc1noc(C)c1-c1ccc(=O)n(Cc2ccccc2)c1 [Example 56, 1-Benzyl-5-(3,5-dimethylisoxazol-4-yl)pyridin-2(1H)-one] | Active |  | 
2 | Cc1noc(C)c1-c1ccc(=O)n(Cc2ccc(Cl)cc2)c1 [Example 128, 1-(4-Chlorobenzyl)-5-(3,5-dimethylisoxazol-4-yl)pyridin-2(1H)-one] | Active | Active | Active
3 | Cc1noc(C)c1-c1cc(N)c(=O)n(Cc2ccc(F)cc2)c1 [Example 180, 3-amino-5-(3,5-dimethylisoxazol-4-yl)-1-(4-fluorobenzyl)pyridin-2(1H)-one] |  |  | Active
4 | Cc1noc(C)c1-c1cc(N)c(=O)n(Cc2ccsc2)c1 [Example 219, 3-amino-5-(3,5-dimethylisoxazol-4-yl)-1-(thiophen-3-ylmethyl)pyridin-2(1H)-one] |  |  | Active
5 | Cc1noc(C)c1-c1cc(N)c(=O)n(Cc2ccc(Br)cc2)c1 [Example 241, 3-Amino-1-(4-bromobenzyl)-5-(3,5-dimethylisoxazol-4-yl)pyridin-2(1H)-one] |  |  | Active
